Measured values as given in patent US11667602B2, “Compounds and their use” (AstraZeneca AB, priority 2020, dated 2023).
Where two headings read alike, the source gives them in different places.

Molecular target: T1, human RXFP1 (Homo sapiens, UniProt Q9HBX9)
T1 sequence (Q9HBX9 1-757): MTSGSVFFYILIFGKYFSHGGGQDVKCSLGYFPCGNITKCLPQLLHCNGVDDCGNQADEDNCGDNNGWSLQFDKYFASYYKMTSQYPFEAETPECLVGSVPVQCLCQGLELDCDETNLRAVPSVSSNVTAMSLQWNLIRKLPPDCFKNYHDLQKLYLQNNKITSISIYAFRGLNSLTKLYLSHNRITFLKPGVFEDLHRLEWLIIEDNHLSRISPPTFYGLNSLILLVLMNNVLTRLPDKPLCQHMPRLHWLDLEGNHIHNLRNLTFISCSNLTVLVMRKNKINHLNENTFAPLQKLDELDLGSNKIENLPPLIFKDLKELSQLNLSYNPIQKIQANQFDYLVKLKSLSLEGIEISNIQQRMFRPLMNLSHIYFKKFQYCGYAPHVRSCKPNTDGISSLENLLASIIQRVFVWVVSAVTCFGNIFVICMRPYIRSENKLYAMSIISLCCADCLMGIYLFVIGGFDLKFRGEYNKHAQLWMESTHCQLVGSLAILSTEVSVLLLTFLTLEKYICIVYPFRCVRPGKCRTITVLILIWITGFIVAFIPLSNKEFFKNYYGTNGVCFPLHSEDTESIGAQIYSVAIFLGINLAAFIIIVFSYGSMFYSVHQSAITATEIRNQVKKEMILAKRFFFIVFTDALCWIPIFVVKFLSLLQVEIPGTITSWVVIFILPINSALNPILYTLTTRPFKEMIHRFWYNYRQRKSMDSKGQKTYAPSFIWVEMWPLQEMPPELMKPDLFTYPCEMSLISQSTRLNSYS
Test: RXFP1 Hu cAMP (Test A)
Type: cell-based
Set-up: expressed in transfected cells; host or cells: Jump-In T-REx CHO-K1 cells (ThermoFisher), induced with 10 ng/ml doxycycline for 24 h
Summary of the method: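 Cells: CHO-K1 stably carrying human RXFP1, expressed after 24 h 10 ng/ml doxycycline; 0.5 mM IBMX final, HTRF detection after 2 h at room temperature.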

[1] = RXFP1 Hu cAMP, read-out: Test A EC50

| Molecule | Test A Sinf (RXFP1 Hu cAMP) [%] | EC50 [1] [nM] | EC50 (Test A EC50, RXFP1 Hu cAMP) [nM] |
| --- | --- | --- | --- |
| COc1cc(C)c(O[C@H]2CC[C@@](C)(C(=O)O)CC2)cc1C(=O)N[C@@H]1[C@H]2CC[C@H](C2)[C@@H]1C(=O)NC12CC(F)(C1)C2 [Example 382] | 90 | 130 |  |
| CCC(CC)CNC(=O)c1ccc(C)cc1NC(=O)c1cc(O[C@H]2CC[C@@](C)(C(=O)O)CC2)c(C#N)cc1OC [Example 167] | 147 | 120 |  |
| CCCCCCNC(=O)[C@H]1[C@@H]2CC[C@@H](C2)[C@H]1NC(=O)c1cc(O[C@H]2CC[C@@](C)(C(=O)O)CC2)c(C#N)cc1OC [Example 117] | 100 | 110 |  |
| (1R,4s)-4-(2-fluoro-5-(((1S*,2S*,3R*,4R*)-3-((4-fluoro-3-(pentafluoro-λ6-sulfaneyl)phenyl)carbamoyl)bicyclo[2.2.1]heptan-2-yl)carbamoyl)-4-methoxyphenoxy)-1-methylcyclohexane-1-carboxylic acid [Example 521] | 99 |  |  |
| CC1(CNC(=O)[C@H]2[C@@H]3CC[C@@H](C3)[C@H]2NC(=O)c2ccc(F)c(O[C@H]3CC[C@@](C)(C(=O)O)CC3)c2)CCC1 [Example 400] | 91 |  | 180 |
| COc1cc(C#N)c(O[C@H]2CC[C@@](C)(C(=O)O)CC2)cc1C(=O)N[C@@H]1[C@H]2CC[C@H](C2)[C@@H]1C(=O)NCCC1CC1 [Example 133] | 100 | 450 |  |
| COc1cc(F)c(O[C@H]2CC[C@@](C)(C(=O)O)CC2)cc1C(=O)N[C@@H]1COC[C@@H]1C(=O)Nc1cccc(S(=O)(=O)C(F)(F)F)c1 (racemic) [Example 342] | 132 | 550 |  |
| COc1cc(F)c(O[C@H]2CC[C@](C)(CC(=O)O)CC2)cc1C(=O)N[C@@H]1[C@H]2CC[C@H](C2)[C@@H]1C(=O)NCC1(C)CCC1 [Example 477, 2-((1R,4r)-4-(2-Fluoro-4-methoxy-5-(((1S,2R,3S,4R)-3-(((1-methylcyclobutyl)methyl)carbamoyl)bicyclo[2.2.1]heptan-2-yl)carbamoyl)phenoxy)-1-methylcyclohexyl)acetic acid] | 84 |  |  |
| COc1cc(F)c(O[C@H]2CC[C@@](CO)(C(=O)O)CC2)cc1C(=O)N[C@H]1[C@@H](C(=O)NCC2(C)CCC2)[C@H]2CC[C@@H]1O2 (racemic) [Example 332] | 103 |  |  |
| COc1cc(C#N)c(O[C@H]2CC[C@@](C)(C(=O)O)CC2)cc1C(=O)N[C@@H]1C2CCC(CC2)[C@@H]1C(=O)NCC1(C)CCC1 (racemic) [Example 468, (1R,4s)-4-(2-Cyano-4-methoxy-5-(((2SR,3RS)-3-(((1-methylcyclobutyl)methyl)carbamoyl)bicyclo[2.2.2]octan-2-yl)carbamoyl)phenoxy)-1-methylcyclohexane-1-carboxylic acid] | 93 | 4.1 |  |
| (1R,4s)-4-(2-Fluoro-5-(((3S*,4S*)-4-((4-fluoro-3-(pentafluoro-λ6-sulfaneyl)phenyl)carbamoyl)tetrahydro-2H-pyran-3-yl)carbamoyl)-4-methoxyphenoxy)-1-methylcyclohexane-1-carboxylic acid [Example 575] | 101 |  |  |
| COc1cc(C#N)c(O[C@H]2CC[C@@](C)(C(=O)O)CC2)cc1C(=O)N[C@@H]1CCCC[C@@H]1C(=O)NCC1(C)CCC1 [Example 361] | 91 | 780 |  |

Continued, in another order:

| Test A Sinf (RXFP1 Hu cAMP) [%] | EC50 [1] [nM] | Molecule | EC50 (Test A EC50, RXFP1 Hu cAMP) [nM] |
| --- | --- | --- | --- |
| 95 | 370 | COc1cc(F)c(-c2cccc([C@@H](C(=O)O)N(C)C)c2)cc1C(=O)N[C@@H]1[C@H]2CC[C@H](C2)[C@@H]1C(=O)Nc1cccc(S(=O)(=O)C(F)(F)F)c1 (racemic) [Example 294] |  |
| 29 |  | COc1cc(F)c(-c2nc(C(=O)O)cs2)cc1C(=O)N[C@H]1[C@@H](C(=O)Nc2cccc(S(=O)(=O)C(F)(F)F)c2)[C@@H]2C=C[C@H]1C2 (racemic) [Example 286] |  |
| 104 | 4100 | COc1cc(F)c(O[C@H]2CC[C@@](CO)(C(=O)O)CC2)cc1C(=O)N[C@@H]1C[C@@H](OC)C[C@@H]1C(=O)NCC(C)(C)C (racemic) [Example 338] |  |
| 104 | 44 | COc1cc(C#N)c(O[C@H]2CC[C@@](C)(C(=O)O)CC2)cc1C(=O)N[C@@H]1[C@H]2CC[C@H](C2)[C@@H]1C(=O)N[C@H]1CCCC[C@H]1CC(F)(F)F [Example 134] |  |
| 101 | 190 | COc1cc(F)c(-c2cnc(CCC(=O)O)cn2)cc1C(=O)N[C@@H]1[C@@H]2CC[C@@H](C2)[C@@H]1C(=O)Nc1cccc(S(=O)(=O)C(F)(F)F)c1 (racemic) [Example 324, rac-3-(5-(2-Fluoro-4-methoxy-5-(((1R,2R,3S,4S)-3-((3-((trifluoromethyl)sulfonyl)phenyl)carbamoyl)bicyclo[2.2.1]heptan-2-yl)carbamoyl)phenyl)pyrazin-2-yl)propanoic acid] |  |
| 103 | 390 | COc1cc(F)c(O[C@H]2CC[C@@](C)(C(=O)O)CC2)cc1C(=O)N[C@@H]1[C@H]2CC[C@H](C2)[C@@H]1C(=O)NC1CC(F)(F)C1 [Example 619] |  |
| 93 | 240 | COc1cc(F)c(OC2CCC(CO)(C(=O)O)CC2)cc1C(=O)N[C@H]1[C@H]2CC[C@H](C2)[C@H]1C(=O)Nc1cccc(S(=O)(=O)C(F)(F)F)c1 (relative stereo) [Example 585, (1R,4s)-4-(2-Fluoro-4-methoxy-5-(((1S*,2S*,3R*,4R*)-3-((3-((trifluoromethyl)sulfonyl)phenyl)carbamoyl)bicyclo[2.2.1]heptan-2-yl)carbamoyl)phenoxy)-1-(hydroxymethyl)cyclohexane-1-carboxylic acid] |  |
| 119 |  | COc1cc(F)c(O[C@H]2CC[C@@](C)(C(=O)O)CC2)cc1C(=O)N[C@@H]1[C@H]2CC[C@H](C2)[C@@H]1C(=O)NCC(C)(C)CO [Example 612] |  |
|  | > 40000 | COc1cc(F)c(O[C@H]2CC[C@@](C)(C(=O)O)CC2)cc1C(=O)N[C@H]1[C@@H](C(=O)Nc2cccc(S(=O)(=O)C(F)(F)F)c2)CC[C@H]1OC (racemic) [Example 397, (1R,4s)-4-(2-Fluoro-4-methoxy-5-(((1SR,2RS,5SR)-2-methoxy-5-((3-((trifluoromethyl)sulfonyl)phenyl)carbamoyl)cyclopentyl)carbamoyl)phenoxy)-1-methylcyclohexane-1-carboxylic acid] |  |
| 116 | 1000 | COc1ccc(-c2cc(C(=O)N[C@H]3[C@@H](C(=O)Nc4cccc(S(=O)(=O)C(F)(F)F)c4)[C@@H]4C=C[C@H]3C4)c(OC)cc2F)cc1C(=O)O (racemic) [Example 230] |  |
| 85 | 820 | COc1cc(F)c(-c2cc(C(=O)O)cs2)cc1C(=O)N[C@H]1[C@@H](C(=O)Nc2cccc(S(=O)(=O)C(F)(F)F)c2)[C@@H]2C=C[C@H]1C2 (racemic) [Example 284, rac-5-(2-Fluoro-4-methoxy-5-(((1R,2R,3S,4S)-3-((3-((trifluoromethyl)sulfonyl)phenyl)carbamoyl)bicyclo[2.2.1]hept-5-en-2-yl)carbamoyl)phenyl)thiophene-3-carboxylic acid] |  |
| 102 | 17 | COc1cc(F)c(O[C@H]2CC[C@@](C)(C(=O)O)CC2)cc1C(=O)N[C@H]1[C@H]2CC[C@H](CC2)[C@H]1C(=O)NCC1(C)CCC1 (racemic) [Example 470, (1R,4s)-4-(2-Fluoro-4-methoxy-5-(((2SR,3RS)-3-(((1-methylcyclobutyl)methyl)carbamoyl)bicyclo[2.2.2]octan-2-yl)carbamoyl)phenoxy)-1-methylcyclohexane-1-carboxylic acid] |  |
|  | > 40000 | COc1ccc(Oc2ccccc2C(=O)O)cc1C(=O)N[C@H]1[C@@H](C(=O)Nc2cccc(S(=O)(=O)C(F)(F)F)c2)[C@@H]2C=C[C@H]1C2 (racemic) [Example 429] |  |
|  | > 40000 | COc1cc(F)c(O[C@H]2CC[C@@](C)(C(=O)O)CC2)cc1C(=O)NC1COCCC1C(=O)Nc1cccc(S(=O)(=O)C(F)(F)F)c1 (single isomer, unassigned) [Example 558, (1R,4s)-4-(2-Fluoro-4-methoxy-5-(((3S*,4S*)-4-((3-((trifluoromethyl)sulfonyl)phenyl)carbamoyl)tetrahydro-2H-pyran-3-yl)carbamoyl)phenoxy)-1-methylcyclohexane-1-carboxylic acid] |  |
| 125 | 160 | COc1cc(C#N)c(O[C@H]2CC[C@@](C)(C(=O)O)CC2)cc1C(=O)Nc1cc(Cl)ccc1C(=O)NCC1(F)CCC1 [Example 160] |  |
